# Values joined by “and” are separate entries in the source; they are usually repeats but may differ in a detail not shown here. Equal values may be shown once. Read-outs that look alike come from different tables or passages of the source.
# Key:
# M. tuberculosis H37Rv [1] = experiment: MIC against M. tuberculosis H37Rv in 7H9 medium with various supplements; type: cell-based, Mycobacterium tuberculosis; conditions: for MIC: Mycobacterium tuberculosis
# [2] = tested on: recA promoter reporter in M. tuberculosis H37Rv; type: cell-based, Mycobacterium tuberculosis
# M. tuberculosis H37Rv [3] = experiment: microbe, parasite or virus in culture; type: cell-based; conditions: Mycobacterium tuberculosis, read-out: MIC90, H37Rv
# murine RAW 264.7 cells = type: cell-based; conditions: highest concentration tested
# M. tuberculosis Erdman = experiment: microbe, parasite or virus in culture; type: cell-based; conditions: Mycobacterium tuberculosis, read-out: MIC against the Erdman strain with 4% human serum albumin, 7H9 medium-ADC-glycerol plus 4% human serum albumin
# S. pneumoniae = conditions: cited from earlier work
# in vivo [4] = conditions: male, mouse
# S. aureus = conditions: cited from earlier work
# [5] = for Average Conc. Found in plasma: infected BALB/c mice
# in vivo [6] = conditions: BALB/c, mouse, 300 mg/kg
# in vitro [7] = conditions: mouse, plasma
# [8] = tested on: replicating M. tuberculosis H37Rv; type: cell-based; conditions: 1× MIC
# [9] = tested on: mouse lymphoma assay (micronucleation aberrations); conditions: highest concentration tested; cited from earlier work
# M. tuberculosis H37Rv [10] = experiment: microbe, parasite or virus in culture; type: cell-based; conditions: Mycobacterium tuberculosis, 168 h; for MIC: H37Rv, 7 days, Middlebrook 7H9 with OADC and glycerol, read-out: MIC (dose-response); for MBC: H37RV, CARA, transfer to charcoal agar, additional 7 days
# H37Rv (RecA) = type: cell-based, Mycobacterium tuberculosis
# [11] = tested on: M. tuberculosis Erdman pFCA-LuxAB (Erdman Lux); conditions: BALB/c mice, 300 mg/kg p.o. daily, 12 days
# [12] = target: M. tuberculosis DNA gyrase (Mycobacterium tuberculosis, UniProt P9WG45+P9WG47); experiment: biochemical; conditions: read-out: IC50, DNA gyrase supercoiling
# N. gonorrhoeae [13] = conditions: cited from earlier work
# [14] = tested on: iniB promoter reporter in M. tuberculosis H37Rv; type: cell-based, Mycobacterium tuberculosis
# in vitro [15] = conditions: human, plasma
# Text: (§1) Aiming to identify a compound to progress to in vivo efficacy studies, compounds were profiled for physicochemical properties, PK, and safety.
# [16] = tested on: M. tuberculosis expressing DsRed in murine RAW 264.7 cells; experiment: microbe, parasite or virus in culture; type: cell-based; conditions: for IC50: RAW 264.7, 72 h exposure, read-out: IC50, intracellular M. tuberculosis in murine macrophages
# physchem = conditions: pH 6.5
# Text: as §1
# M. tuberculosis ΔcydA = type: cell-based
# M. tuberculosis = conditions: 200 mg/kg, 14 days of dosing, published study; cited from earlier work
# Mtb = type: in vivo; conditions: 100 mg/kg, day 21; limit 1.57 log10 CFU
# N. gonorrhoeae [17] = type: cell-based
# [18] = H37RV, read-out: MIC, ADC/GLU/TW
# [19] = H37RV, read-out: MIC, DPPC/CAS/TX
# [20] = H37RV, read-out: MIC, DPPC/Chol/BSA/TX
# [21] = H37RV, read-out: MIC, GLU/BSA/TX
# [22] = H37RV, read-out: MIC, GLU/CAS/TX
# M. tuberculosis DNA gyrase, sequence (P9WG45 whole entry): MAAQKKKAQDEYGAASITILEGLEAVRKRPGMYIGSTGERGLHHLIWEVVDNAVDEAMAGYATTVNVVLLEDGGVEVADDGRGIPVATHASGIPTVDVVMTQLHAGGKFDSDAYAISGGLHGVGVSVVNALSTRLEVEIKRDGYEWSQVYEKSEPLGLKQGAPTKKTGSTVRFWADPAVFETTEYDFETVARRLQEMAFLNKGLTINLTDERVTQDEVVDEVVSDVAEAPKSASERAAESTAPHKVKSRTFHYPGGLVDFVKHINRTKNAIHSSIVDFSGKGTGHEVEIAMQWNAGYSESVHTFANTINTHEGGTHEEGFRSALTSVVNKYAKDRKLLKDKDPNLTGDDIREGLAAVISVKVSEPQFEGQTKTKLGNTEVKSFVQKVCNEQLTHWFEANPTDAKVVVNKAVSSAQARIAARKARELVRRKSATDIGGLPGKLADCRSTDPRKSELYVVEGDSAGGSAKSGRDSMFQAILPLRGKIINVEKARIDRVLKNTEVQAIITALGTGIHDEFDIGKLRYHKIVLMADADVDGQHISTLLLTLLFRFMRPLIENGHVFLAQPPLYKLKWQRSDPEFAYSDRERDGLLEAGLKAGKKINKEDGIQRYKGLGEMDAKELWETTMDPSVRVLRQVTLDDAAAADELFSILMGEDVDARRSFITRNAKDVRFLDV
# M. tuberculosis DNA gyrase, sequence (P9WG47 whole entry): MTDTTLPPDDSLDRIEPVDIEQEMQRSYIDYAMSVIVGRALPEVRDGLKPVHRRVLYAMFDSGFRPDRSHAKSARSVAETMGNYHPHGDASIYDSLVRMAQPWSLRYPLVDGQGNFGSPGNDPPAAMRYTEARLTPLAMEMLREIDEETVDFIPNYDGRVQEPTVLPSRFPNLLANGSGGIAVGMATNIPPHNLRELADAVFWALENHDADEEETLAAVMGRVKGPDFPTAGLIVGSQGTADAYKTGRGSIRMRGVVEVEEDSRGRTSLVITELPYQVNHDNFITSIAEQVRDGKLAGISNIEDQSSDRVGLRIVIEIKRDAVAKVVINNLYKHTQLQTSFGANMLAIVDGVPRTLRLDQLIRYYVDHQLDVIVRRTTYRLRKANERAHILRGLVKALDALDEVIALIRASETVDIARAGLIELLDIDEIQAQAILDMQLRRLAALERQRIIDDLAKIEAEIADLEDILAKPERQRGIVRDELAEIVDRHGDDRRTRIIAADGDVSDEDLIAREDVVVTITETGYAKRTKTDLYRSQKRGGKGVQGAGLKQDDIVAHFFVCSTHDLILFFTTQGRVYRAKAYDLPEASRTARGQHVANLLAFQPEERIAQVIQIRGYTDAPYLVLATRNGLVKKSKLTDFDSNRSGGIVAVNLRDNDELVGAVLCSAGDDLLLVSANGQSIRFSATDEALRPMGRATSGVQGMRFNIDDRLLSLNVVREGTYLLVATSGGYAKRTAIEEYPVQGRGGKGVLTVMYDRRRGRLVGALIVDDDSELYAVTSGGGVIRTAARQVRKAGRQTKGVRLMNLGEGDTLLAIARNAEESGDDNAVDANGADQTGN
compound,measurement,setting,value
Cc1nnc(-c2noc3c(F)c4c(cc23)CC2(C(=O)NC(=O)NC2=O)[C@H]2[C@H](C)O[C@H](C)CN42)o1 [Compound 22],antibacterial activity in culture lower than moxifloxacin,M. tuberculosis H37Rv [1],8 fold
same,MIC,M. tuberculosis H37Rv [1]; [18],1.7 µM
same,MIC,M. tuberculosis H37Rv [1]; [19],5.2 µM
same,MIC,M. tuberculosis H37Rv [1]; [20],2.9 µM
same,MIC,M. tuberculosis H37Rv [1]; [21],3 µM
same,MIC,M. tuberculosis H37Rv [1]; [22],2.6 µM
same,concentration of maximal effect in PrecA-LUX assay,[2]; at 7 days,0.4 µM
same,bioluminescence response in PrecA-LUX assay,[2]; over 7 days,strong bioluminescence signal
same,MIC90,M. tuberculosis H37Rv [3],1 µM
same,toxicity against the macrophage cell line,murine RAW 264.7 cells,> 100 µM
same,MIC,M. tuberculosis Erdman,16 µM
same,MIC against S. pneumoniae,S. pneumoniae,0.25 µM
same,AUC(0-inf),"in vivo [4]; iv, 2 mg/kg",2.37 µg·h/mL
same,Vd,"in vivo [4]; iv, 2 mg/kg",5.1 L/kg
same,clearance,"in vivo [4]; iv, 2 mg/kg",14.3 mL/min/kg
same,half-life,"in vivo [4]; iv, 2 mg/kg",3.7 h
same,AUC(0-inf),"in vivo [4]; po, 20 mg/kg",24.6 µg·h/mL
same,Cmax,"in vivo [4]; po, 20 mg/kg",9.5 µg/mL
same,Tmax,"in vivo [4]; po, 20 mg/kg",1 h
same,bioavailability,"in vivo [4]; po, 20 mg/kg",104%
same,AUC(0-inf),"in vivo [4]; po, 100 mg/kg",343 µg·h/mL
same,Cmax,"in vivo [4]; po, 100 mg/kg",47 µg/mL
same,Tmax,"in vivo [4]; po, 100 mg/kg",2.8 h
same,AUC(0-inf),"in vivo [4]; po, 300 mg/kg",1270 µg·h/mL
same,Cmax,"in vivo [4]; po, 300 mg/kg",133 µg/mL
same,Tmax,"in vivo [4]; po, 300 mg/kg",1 h
same,AUC(0-inf),"in vivo [4]; po, 500 mg/kg",1440 µg·h/mL
same,Cmax,"in vivo [4]; po, 500 mg/kg",117 µg/mL
same,Tmax,"in vivo [4]; po, 500 mg/kg",0.83 h
same,MIC against S. aureus,S. aureus,0.5 µM
same,"Found Concentration in plasma, single mice","[5]; infected BALB/c mice A, B, C, 300 mg/kg QD, 1 hr post dose, 300 mg/kg",229000 ng/mL and 117000 ng/mL and 148000 ng/mL
same,Average Conc. Found in plasma,"[5]; 300 mg/kg QD, 1 hr post dose",165000 ng/mL
same,Average Conc. Found in plasma,"[5]; 300 mg/kg QD, 24 hr post dose",6100 ng/mL
same,free drug concentration over the MIC,"[5]; predicted from PK in healthy mice, for over 8 h",about 2 fold
same,Cmax,in vivo [6],165 ± 58 µg/mL
same,fraction unbound,in vitro [7],0.068
same,time to 3-log kill,[8],7 days
same,genotoxicity in the MLA,[9],no genotoxicity at the highest concentration tested
same,MIC,M. tuberculosis H37Rv [10],7.26 µM
same,MBC,M. tuberculosis H37Rv [10],15.6 µM
same,PrecA-LUX MIC,H37Rv (RecA),~ 3.9 μM
same,tolerability,[11],generally well tolerated
same,IC50,[12],2 µM
same,MIC against N. gonorrhoeae,N. gonorrhoeae [13],2.0 µM
same,bioluminescence response in PiniB-LUX assay,[14],"none of the DNA gyrase inhibitors, including 22, elicited a strong bioluminescence response"
same,fraction unbound,in vitro [15],0.15
same,macrophage IC50 higher than the average in vitro broth MIC,[16],less than 3 fold
same,IC50,"[16]; Mycobacterium tuberculosis, RAW264.7, 72 h",6.3 µM
same,IC50,[16],6 µM
same,solubility thermodynamic,physchem,140 µM
"CO[C@H]1/C=C/O[C@@]2(C)Oc3c(C)c(O)c4c(O)c(c(/C=N/N5CCN(C)CC5)c(O)c4c3C2=O)NC(=O)/C(C)=C\C=C\[C@H](C)[C@H](O)[C@@H](C)[C@@H](O)[C@@H](C)[C@H](OC(C)=O)[C@@H]1C [Rif, rifampicin]",MIC90,M. tuberculosis H37Rv [3],0.002 µM
same,"MIC90, ΔcydA",M. tuberculosis ΔcydA,0.0046 µM
"COc1c(N2C[C@@H]3CCCN[C@@H]3C2)c(F)cc2c(=O)c(C(=O)O)cn(C3CC3)c12 [Moxifloxacin, moxifloxacin]",MIC,"M. tuberculosis H37Rv [1]; H37Rv, 7H9 medium with DPPC/Casitone/tyloxapol, read-out: MIC, DPPC/CAS/TX",0.2 µM
same,MIC,"M. tuberculosis H37Rv [1]; H37Rv, 7H9 medium with albumin-dextrose catalase/glucose/Tween, read-out: MIC, ADC/GLU/TW",0.17 µM
same,MIC,"M. tuberculosis H37Rv [1]; H37Rv, 7H9 medium with glucose/BSA/tyloxapol, read-out: MIC, GLU/BSA/TX",0.3 µM
same,PrecA-LUX signal higher than for 22,[2]; at 0.5× MIC,~6 fold
same,CFU reduction,M. tuberculosis,3.3 log10 CFU
same,MIC90,M. tuberculosis H37Rv [3],0.24 µM
same,"n, number of mice showing viable bacteria above the lower limit of detection/total number of animals tested",Mtb,3/6
same,MIC,M. tuberculosis H37Rv [10],0.38 µM
same,MBC,M. tuberculosis H37Rv [10],0.78 µM
same,PrecA-LUX MIC,H37Rv (RecA),~ 0.19 μM
"C[C@@H]1CN2c3c(cc4c(N5C(=O)OC[C@@H]5C)noc4c3F)CC3(C(=O)NC(=O)NC3=O)[C@H]2[C@H](C)O1 [Zoliflodacin, zoliflodacin, reference compound]",MIC,M. tuberculosis H37Rv [1]; [18],6.4 µM
same,MIC,M. tuberculosis H37Rv [1]; [19],19 µM
same,MIC,M. tuberculosis H37Rv [1]; [20],19 µM
same,MIC,M. tuberculosis H37Rv [1]; [21],12 µM
same,MIC,M. tuberculosis H37Rv [1]; [22],19 µM
same,MIC against N. gonorrhoeae lower than that for 22,N. gonorrhoeae [17],8 fold
